Source: US20120172369A1 (priority 2009, published 2012)

Target: T1, human DGAT1 enzyme (Homo sapiens, UniProt O75907)
T1 construct: made in house; host or cells: Sf9 insect cells (microsomal membranes)
T1 sequence (O75907 1-488): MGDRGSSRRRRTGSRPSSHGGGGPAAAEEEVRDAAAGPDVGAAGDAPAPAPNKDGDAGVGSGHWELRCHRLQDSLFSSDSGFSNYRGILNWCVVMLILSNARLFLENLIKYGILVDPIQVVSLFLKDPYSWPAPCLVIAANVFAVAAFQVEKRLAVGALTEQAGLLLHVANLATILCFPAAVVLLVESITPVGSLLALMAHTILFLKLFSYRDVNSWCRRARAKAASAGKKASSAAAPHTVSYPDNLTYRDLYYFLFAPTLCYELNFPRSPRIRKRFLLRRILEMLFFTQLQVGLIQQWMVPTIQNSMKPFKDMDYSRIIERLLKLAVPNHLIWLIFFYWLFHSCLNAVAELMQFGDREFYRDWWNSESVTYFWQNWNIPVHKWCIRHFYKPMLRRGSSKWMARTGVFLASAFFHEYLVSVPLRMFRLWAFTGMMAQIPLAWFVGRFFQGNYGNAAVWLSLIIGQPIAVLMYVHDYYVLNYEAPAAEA
Experiment: in vitro DGAT1 inhibition assay (microsomes, [14C]-palmitoyl-CoA, SPA beads)
Type: biochemical
Conditions: human DGAT1 expressed in Sf9 insect cells, microsomes; 2 hours at room temperature; read-out: IC50
Experimental: The in vitro assay to identify DGAT1 inhibitors uses human DGAT1 enzyme expressed in Sf9 insect cells prepared as microsomes. The reaction was initiated by the addition of the combined substrates 1,2-dioleoyl-sn-glycerol and [^14C]-palmitoyl-Co A and incubated with test compounds and microsomal membranes for 2 hours at room temperature. The assay was stopped by adding 0.5 mg wheat germ agglutinin beads in assay buffer with 1% Brij-35 and 1% 3-cholamidopropyldimethyl-ammonio-1-propane sulfonate. Plates were sealed with TopSeal and incubated for 18 hours to allow the radioactive triglyceride product to come into proximity with the bead. Plates were read on a TopCount instrument.
Percent inhibition was calculated as the percent of (test compound inhibition minus non-specific binding) relative to (total binding minus non-specific binding). IC50 values were determined by curve fitting the data to a Sigmoidal dose-response in GraphPad Prism utilizing the following equation:
Y=A+(B−A)/(1+10̂((Log IC50−X))),
where A and B are the bottom and top of the curve (highest and lowest inhibition), respectively, and X is the logarithm of concentration.

Structure (SMILES)	IC50 [nM]
Cc1c(C(=O)Nc2ccc(N3CCC(COc4cccc(C(=O)O)c4)CC3)nc2)oc2ccc(-c3ccc(F)cc3)cc12 [Example 39, 3-((1-(5-(5-(4-fluorophenyl)-3-methylbenzofuran-2-carboxamido)pyridin-2-yl)piperidin-4-yl)methoxy)benzoic acid]	55
Cc1c(C(=O)Nc2ccc(N3CCN(C(=O)Nc4ccccc4F)CC3)nc2)oc2ccc(-c3ccc(F)cc3)cc12 [Example 40, N-(2-fluorophenyl)-4-(5-(5-(4-fluorophenyl)-3-methylbenzofuran-2-carboxamido)pyridin-2-yl)piperazine-1-carboxamide]	100
Cc1c(C(=O)Nc2ccc(N3CCN(C(=O)Nc4ccccc4F)CC3)nc2)sc2ccc(-c3ccccc3)cc12 [Example 46, N-(2-fluorophenyl)-4-(5-(3-methyl-5-phenylbenzo[b]thiophene-2-carboxamido)pyridin-2-yl)piperazine-1-carboxamide]	84
Cc1c(C(=O)Nc2ccc(N3CCC(OCc4cccc(C(=O)O)c4)CC3)nc2)sc2ccc(-c3ccccc3)cc12 [Example 51, 3-((1-(5-(3-methyl-5-phenylbenzo[b]thiophene-2-carboxamido)pyridin-2-yl)piperidin-4-yloxy)methyl)benzoic acid]	28
Cc1c(C(=O)Nc2ccc(N3CCN(C(=O)Nc4ccccc4C(=O)O)CC3)nc2)sc2ccc(-c3ccccc3)cc12 [Example 53, 2-(4-(5-(3-methyl-5-phenylbenzo[b]thiophene-2-carboxamido)pyridin-2-yl)piperazine-1-carboxamido)benzoic acid]	27
Cc1c(C(=O)Nc2ccc(-c3ccc(OCC(C)(C)C(=O)O)nc3)cc2)oc2ccc(-c3ccccc3)cc12 [Example 58, 2,2-dim ethyl-3-(5-(4-(3-methyl-5-phenylbenzofuran-2-carboxamido)phenyl)pyridin-2-yloxy)propanoic acid]	13
COc1ccc(-c2ccc3oc(C(=O)Nc4ccc(N5CCC(OCc6cccc(C(=O)O)c6)CC5)nc4)c(C)c3c2)cc1 [Example 64, 3-((1-(5-(5-(4-methoxyphenyl)-3-methylbenzofuran-2-carboxamido)pyridin-2-yl)piperidin-4-yloxy)methyl)benzoic acid]	65
CCOC(=O)c1ccccc1NC(=O)N1CCN(c2ccc(NC(=O)c3oc4ccc(-c5ccccc5OC)cc4c3C)cn2)CC1 [Example 68, ethyl 2-(4-(5-(5-(2-methoxyphenyl)-3-methylbenzofuran-2-carboxamido)pyridin-2-yl)piperazine-1-carboxamido)benzoate]	2460
COc1ccccc1-c1ccc2oc(C(=O)Nc3ccc(N4CCN(C(=O)Nc5ccccc5F)CC4)nc3)c(C)c2c1 [Example 69, N-(2-fluorophenyl)4-(5-(5-(2-methoxyphenyl)-3-methylbenzofuran-2-carboxamido)pyridin-2-yl)piperazine-1-carboxamide]	204
COc1ccccc1-c1ccc2oc(C(=O)Nc3ccc(N4CCN(C(=O)Nc5ccccc5C(=O)O)CC4)nc3)c(C)c2c1 [Example 70]	1090
COc1ccccc1-c1ccc2oc(C(=O)Nc3ccc(N4CCC(COc5cccc(C(=O)O)c5)CC4)nc3)c(C)c2c1 [Example 71]	171
COC(=O)c1cccc(COC2CCN(c3ccc(NC(=O)c4oc5ccc(-c6ccccc6OC)cc5c4C)cn3)CC2)c1 [Example 72, methyl 3-((1-(5-(5-(2-methoxyphenyl)-3-methylbenzofuran-2-carboxamido)pyridin-2-yl)piperidin-4-yloxy)methyl)benzoate]	13300
COc1ccccc1-c1ccc2oc(C(=O)Nc3ccc(N4CCC(OCc5cccc(C(=O)O)c5)CC4)nc3)c(C)c2c1 [Example 73, 3-((1-(5-(5-(2-methoxyphenyl)-3-methylbenzofuran-2-carboxamido)pyridin-2-yl)piperidin-4-yloxy)methyl)benzoic acid]	108
Cc1c(C(=O)Nc2ccc(N3CC[C@H](COc4ccc(C(=O)O)cc4)C3)nc2)oc2ccc(-c3ccccc3)cc12 [Example 81, (S)-4-((1-(5-(3-methyl-5-phenylbenzofuran-2-carboxamido)pyridin-2-yl)pyrrolidin-3-yl)methoxy)benzoic acid]	1060
Cc1c(C(=O)Nc2ccc(N3CCN(C(=O)Nc4ccccc4F)CC3)nc2)oc2ccc(-c3ncco3)cc12 [Example 82, N-(2-fluorophenyl)-4-(5-(3-methyl-5-(oxazol-2-yl)benzofuran-2-carboxamido)pyridin-2-yl)piperazine-1-carboxamide]	104

Further lines, results first:

IC50 [nM]	Structure (SMILES)
1010	CCOC(=O)c1ccccc1NC(=O)N1CCN(c2ccc(NC(=O)c3oc4ccc(-c5ccc(F)cc5)cc4c3C)cn2)CC1 [Example 38, ethyl 2-(4-(5-(5-(4-fluorophenyl)-3-methylbenzofuran-2-carboxamido)pyridin-2-yl)piperazine-1-carboxamido)benzoate]
2330	CCOC(=O)c1ccccc1NC(=O)N1CCN(c2ccc(NC(=O)c3sc4ccc(-c5ccccc5)cc4c3C)cn2)CC1 [Example 50, ethyl 2-(4-(5-(3-methyl-5-phenylbenzo[b]thiophene-2-carboxamido)pyridin-2-yl)piperazine-1-carboxamido)benzoate]
220	Cc1c(C(=O)Nc2ccc(N3CCN(C(=O)Nc4ccccc4F)CC3)nc2)sc2ccc(-c3cccc(F)c3)cc12 [Example 54, N-(2-fluorophenyl)-4-(5-(5-(3-fluorophenyl)-3-methylbenzo[b]thiophene-2-carboxamido)pyridin-2-yl)piperazine-1-carboxamide]
78	Cc1c(C(=O)Nc2ccc(N3CCN(C(=O)Nc4ccccc4F)CC3)nc2)sc2ccc(-c3ccc(F)cc3)cc12 [Example 55, N-(2-fluorophenyl)-4-(5-(5-(4-fluorophenyl)-3-methylbenzo[b]thiophene-2-carboxamido)pyridin-2-yl)piperazine-1-carboxamide]
9	Cc1c(C(=O)Nc2ccc(-c3ccc(OCC(C)(C)C(=O)O)nc3)nc2)oc2ccc(-c3ccccc3)cc12 [Example 59, 2,2-dimethyl-3-(5-(3-methyl-5-phenylbenzofuran-2-carboxamido)-2,3′-bipyridin-6′-yloxy)propanoic acid]
454	CCOC(=O)c1ccccc1NC(=O)N1CCN(c2ccc(NC(=O)c3oc4ccc(-c5ccc(OC)cc5)cc4c3C)cn2)CC1 [Example 65, ethyl 2-(4-(5-(5-(4-methoxyphenyl)-3-methylbenzofuran-2-carboxamido)pyridin-2-yl)piperazine-1-carboxamido)benzoate]
156	Cc1ccc(C(=O)O)cc1COC1CCN(c2ccc(NC(=O)c3oc4ccc(-c5ccccc5)cc4c3C)cn2)CC1 [Example 78, 4-methyl-3-((1-(5-(3-methyl-5-phenylbenzofuran-2-carboxamido)pyridin-2-yl)piperidin-4-yloxy)methyl)benzoic acid]
600	Cc1c(C(=O)Nc2ccc(N3CC[C@@H](COc4ccc(C(=O)O)cc4)C3)nc2)oc2ccc(-c3ccccc3)cc12 [Example 80, (R)-4-((1-(5-(3-methyl-5-phenylbenzofuran-2-carboxamido)pyridin-2-yl)pyrrolidin-3-yl)methoxy)benzoic acid]
305	Cc1c(C(=O)Nc2ccc(N3CCC(OCc4cccc(C(=O)O)c4)CC3)nc2)oc2ccc(-c3ncco3)cc12 [Example 86, 3-((1-(5-(3-methyl-5-(oxazol-2-yl)benzofuran-2-carboxamido)pyridin-2-yl)piperidin-4-yloxy)methyl)benzoic acid]
